In one assay the test system is Regnase-1. As to the kind of experiment: Regnase-1 protein levels in BMDMs (western blot). The assay is classed as cell-based, mouse. The conditions noted are these: unstimulated macrophages, DI. The procedure: (§1) BMDM were prepared from 6- to 12-week-old mice as described 1 and cultured in RMPI-1640 medium supplemented with 10% fetal bovine serum (FBS), 2 mM L-glutamine, and 100 U/mL penicillin-streptomycin and mouse recombinant M-CSF ([…], Peprotech). For experiments, cells were seeded at concentration 10^6 cells/mL in tissue culture plates of various formats. […]
(§2) Cells were lysed in RIPA Lysis Buffer System (Santa Cruz) and heat-denatured at 95° C. for 5 min in reducing sample buffer (BioRad). […] Non-specific binding was blocked with 5% skim milk (or 5% BSA when phospho-proteins were analyzed), and membranes were probed with primary antibodies specific to Nrf2 (#12721), HO-1 (#70081), IκBζ (mouse specific, #93726), IκBζ(#9244), ATF3 (#D2Y5W), IRAK1 (#4504; sensitivity of IRAK1 detection diminishes upon IRAK1 K63 ubiquitination), phospho-IKK (Ser176/180, #2697), p62/SQSTM1 (#5114), phospho-eIF2α (Ser51, #9721), eIF2α (#5324) from Cell Signaling; GAPDH (sc-25778), IκBα (sc-1643), ATF3 (sc-188), SDHA (sc-166909) from Santa Cruz; NQO1 (ab28947) from Abeam, followed by incubation with anti-rabbit-HRP (1:10,000; sc-2030) or anti-mouse-HRP (1:10,000; sc-2031) from Santa Cruz and Clarity western ECL substrate (Bio-Rad). […]

The next assay concerns Ikb-ζ. As to the kind of experiment: IL17A-mediated Ikb-ζ induction in HaCat cells (western blot). The conditions noted are these: DI 12 h at non-toxic concentrations, IL17A 100 ng/ml up to 4 h. It counts as cell-based, human.
The next assay deals with STAT3. As to the kind of experiment: STAT3 activation in IL17A-stimulated HaCat cells (western blot). It counts as cell-based, human. The conditions noted are these: DI 12 h.
Another assay concerns IκBζ. As to the kind of experiment: IL-17A-induced IκBζ in primary mouse keratinocytes (western blot). The assay is classed as cell-based. The conditions noted are these: DI 12 h, IL-17A 100 ng/ml. The procedure:
Cells were lysed in RIPA Lysis Buffer System (Santa Cruz) and heat-denatured at 95° C. for 5 min in reducing sample buffer (BioRad). Proteins were separated on 4%-20% polyacrylamide gradient gels (BioRad) and transferred onto 0.45 μm pore size PVDF membranes (Millipore). Non-specific binding was blocked with 5% skim milk (or 5% BSA when phospho-proteins were analyzed), and membranes were probed with primary antibodies specific to Nrf2 (#12721), HO-1 (#70081), IκBζ (mouse specific, #93726), IκBζ(#9244), ATF3 (#D2Y5W), IRAK1 (#4504; sensitivity of IRAK1 detection diminishes upon IRAK1 K63 ubiquitination), phospho-IKK (Ser176/180, #2697), p62/SQSTM1 (#5114), phospho-eIF2α (Ser51, #9721), eIF2α (#5324) from Cell Signaling; GAPDH (sc-25778), IκBα (sc-1643), ATF3 (sc-188), SDHA (sc-166909) from Santa Cruz; NQO1 (ab28947) from Abeam, followed by incubation with anti-rabbit-HRP (1:10,000; sc-2030) or anti-mouse-HRP (1:10,000; sc-2031) from Santa Cruz and Clarity western ECL substrate (Bio-Rad). Membranes were exposed to X-Ray films (Research Products International Corp.) and developed using SRX-101A film processor (Konica Minolta). GAPDH run on the same blot was used as loading control. After scanning of original films image brightness of some blots was adjusted and bands were cropped using ImageJ. Densitometry was performed using ImageJ. […]

Another assay deals with eIF2α. The assay can be described thus: eIF2α phosphorylation in BMDMs (western blot). It counts as cell-based, mouse. As to conditions: DI. The procedure:
as §1, §2

Data on 1 compound can be found in patent US20200375929A1, “METHODS AND COMPOSITIONS FOR THE TREATMENT OF DISEASES ASSOCIATED WITH CANCER, INFLAMMATION, OR IMMUNE RESPONSE” (Washington University, priority 2017, published 2020).

With `C=C(CC(=O)OC)C(=O)OC` [DI, dimethyl itaconate], in the assay with Regnase-1, the Regnase-1 protein result was “up-regulated Regnase-1”. Also, in the assay on Ikb-ζ, the “IL17A-mediated Ikb-ζ induction” value is given as “almost completely inhibited”. Also, the STAT3 activation entry with STAT3 is “effective to inhibit STAT3 activation”. Besides, the “IL-17-induced IκBζ induction” value in the assay with IκBζ is recorded as “inhibited”. Further, the “eIF2α phosphorylation in Atf3−/− macrophages” value in the assay on eIF2α (Atf3−/− macrophages) is listed as “failed to increase eIF2α phosphorylation”. The eIF2α phosphorylation result in the assay with eIF2α (WT macrophages) was “marked increase”.
